Data: US20240336571A1, “NOVEL CYCLOPROPYL COMPOUNDS” (ICAGEN, LLC, priority 2021, published 2024)

Molecular target: human Kv7.2 (Homo sapiens (Human), UniProt O43526)
Assay: SyncroPatch 384 electrophysiology, activation of Kv7.2 in CHO cells
Type: cell-based
Conditions: for EC50: CHO cells stably expressing human Kv7.2, potassium current at -90 mV repolarizing step, in presence of zinc pyrithione; for Emax: CHO
Protocol: The potency of Kv7 potentiators was determined using the SyncroPatch 384 (Nanion) high throughput electrophysiology platform.
CHO cells stably expressing either human Kv7.2, Kv7.4 or Kv7.5/7.3 under a constitutive CMV promoter were used for these studies. Cells were maintained in F12 Hams+1 mM L-glutamine (Hyclone) supplemented with 10% FBS (Sigma), 0.3×NEAA (Non-essential Gamino-acids) and 400 ug/ml G418 at 37° C. in 5% CO2. Cells were cultured in T-225 flasks (Nunc) for 2-3 days to reach 85-95% confluence prior to electrophysiological recording.
Earle's balanced salt solution (in mM): 135 NaCl, 5.4 KCl, 5 Glucose, 2 CaCl2, 1 MgCl2, 5 HEPES, pH 7.4. Seal enhancer solution (in mM): 90 NaCl, 3 KCl, 35 CaCl2, 10 MgCl2, 10 HEPES, pH 7.4. Extracellular recording solution (in mM): 71 NaCl, 70 NMDG, 13 KCl, 5 Glucose, 2 CaCl2, 1 MgCl2, 10 HEPES, pH 7.4. Intracellular recording solution (in mM): 130 KF, 20 KCl, 4 EGTA, 10 HEPES, 2 EDTA, 0.01 Escin, pH 7.2.
Cells were harvested for electrophysiological recording upon reaching appropriate confluence. Cells were first washed in DPBS (Hyclone, Cat #SH30028.03) and then 2 ml of Accutase (MP Biomedicals #1000449) was added at 28° C. until ˜90% of cells were suspended. F12 HAM's media+1 mM L-glutamine (Hyclone, SH30026.02) was then added to the flask to dilute the accutase. Cells were then triturated until a single cell suspension was achieved, a cell count was performed, and cells were centrifuged for 2 min. at 1,000 rpm. Media was then aspirated, and cells were resuspended in Earle's balanced salt solution to a concentration of 0.75×10^6 cells/ml and allowed to recover for 25 min at 10° C.
At the beginning of each assay, 20 μl of cell suspension was dispensed into each well of a multi-hole 384-well SyncroPatch chip by the onboard pipettor. Cell sealing was initiated, and seal enhancer solution was added to facilitate seal formation. Upon completion of sealing, cells were washed 3 times with extracellular recording solution and the assay voltage protocol was started. Human Kv7.2, Kv7.4 or Kv7.5/7.3 channels were evaluated using a voltage protocol in which cells were voltage-clamped at a holding potential of −60 mV. Potassium currents were continuously activated with a series of three voltage steps to −30 mV for 3 seconds, 40 mV for 1 second and −90 mV for 4 seconds with 12 seconds between successive voltage sweeps. Potassium currents were measured from the −90 mV repolarizing step. Baseline current was assessed for 3.5 minutes prior to the addition of 5.6 μM zinc pyrithione (1 μM for Kv7.4). Kv7.2, Kv7.4 or Kv7.5/7.3 current in the presence of zinc pyrithione was acquired over five minutes to allow channels to reach steady state activity prior to addition of test agents. Channel activity was monitored for three minutes preceding the addition of 30 μM ML-213 (3 minutes) to achieve maximum activation. 150 mM TEA with 10 μM XE-991 was applied for 2 minutes to measure the leak current during maximum inhibition of Kv7.2, Kv7.4 or Kv7.5/7.3 channels.
Data were collected on the SyncroPatch platform using PatchControl software (Nanion) and processed and analyzed using DataControl Software (Nanion). Percent activation was calculated from potassium current as follows: The average current for the 5 sweeps in the presence of zinc pyrithione immediately preceding test agent addition was taken as the ‘control’ data. Likewise, the average potassium current in the presence of test agents 5 sweeps immediately preceding addition of 30 μM ML-213 was determined for ‘drug’ data. The average potassium current 5 sweeps immediately prior to addition of 150 mM TEA+10 μM XE-991 was determined for ‘max activation’ data while average currents from 5 sweeps immediately following addition of TEA was determined for ‘max inhibition’ data. Percent activation for each of the 384-wells of a sealchip was calculated as ((‘drug’−‘max inhibition’)/(‘max activation’−‘max inhibition’))*100 with Pipeline Pilot (Accelrys). […]

[1] = Kv7.2 activation max %, relative to 30 μM ML-213 max activation

| Compound | EC50 | Kv7.2 Emax [1] | Emax [1] |
| --- | --- | --- | --- |
| 1-[(1S,2R)-2-cyclohexylcyclopropyl]-3-[(2-imidazol-1-ylpyridin-4-yl)methyl]urea [Example 15] | 1570 nM | 56% |  |
| O=C(NCc1cccc(Cl)n1)N[C@@H]1C[C@H]1C1CCCCC1 (racemic) [Example 3, 1-[(6-chloropyridin-2-yl)methyl]-3-[rac-(1R,2S)-2-cyclohexylcyclopropyl]urea] | 1540 nM |  | 77% |
| CC(C)c1nccc(CNC(=O)N[C@@H]2C[C@H]2C2CCCCC2)n1 (racemic) [Example 4, 1-[(2-propan-2-ylpyrimidin-4-yl)methyl]-3-[rac-(1R,2S)-2-cyclohexylcyclopropyl]urea] | 4400 nM |  | 71% |
| COc1cc(CNC(=O)N[C@@H]2C[C@H]2c2ccccc2)ccn1 (racemic) [Example 5, 1-[(2-methoxypyridin-4-yl)methyl]-3-[rac-(1R,2S)-2-phenylcyclopropyl]urea] | 3750 nM |  | 44% |
| N#Cc1cc(CNC(=O)N[C@@H]2C[C@H]2c2ccccc2)ccn1 (racemic) [Example 8, 1-[(2-cyanopyridin-4-yl)methyl]-3-[rac-(1R,2S)-2-phenylcyclopropyl]urea] | 4180 nM |  | 40% |
| O=C(NCc1ccnc(Cl)c1)N[C@@H]1C[C@H]1C1CCCCC1 (racemic) [Example 17, 1-[(2-chloropyridin-4-yl)methyl]-3-[rac-(1R,2S)-2-cyclohexylcyclopropyl]urea] | 1760 nM |  | 61% |
| O=C(NCc1ccnc(OC(F)F)c1)N[C@@H]1C[C@H]1C1CCCO1 (mixture of isomers) [Example 43, 1-[[2-(difluoromethoxy)pyridin-4-yl]methyl]-3-[rac-(1R,2R)-2-(oxolan-2-yl)cyclopropyl]urea] | 8010 nM |  | 61% |
| C[C@@H](NC(=O)N[C@@H]1C[C@H]1c1ccccc1)c1ccnc(OC(F)F)c1 (stereo in doubt) [Example 38] | 3810 nM |  | 42% |
| N#Cc1ccnc(CNC(=O)N[C@@H]2C[C@H]2c2ccccc2)c1 [Example 1, 1-[(4-cyanopyridin-2-yl)methyl]-3-[(1R,2S)-2-phenylcyclopropyl]urea] | 4680 nM |  | 73% |
| COc1cc(CNC(=O)N[C@@H]2C[C@H]2c2ccccc2)ccn1 [Example 9, 1-[(2-methoxypyridin-4-yl)methyl]-3-[(1R,2S)-2-phenylcyclopropyl]urea] | 3410 nM |  | 78% |
| N#Cc1cc(CNC(=O)N[C@@H]2C[C@H]2c2ccccc2)ccn1 [Example 10, 1-[(2-cyanopyridin-4-yl)methyl]-3-[(1R,2S)-2-phenylcyclopropyl]urea] | 1190 nM |  | 43% |

Now those with a lower EC50, led by results:

| EC50 | Kv7.2 Emax [1] | Emax [1] | Compound |
| --- | --- | --- | --- |
| 1030 nM |  | 58% | C[C@H]1[C@H](NC(=O)NCc2ccnc(OC(F)F)c2)C1(F)F (racemic) [Example 42, 1-[[2-(difluoromethoxy)pyridin-4-yl]methyl]-3-[rac-(1R,3R)-2,2-difluoro-3-methylcyclopropyl]urea] |
| 920 nM |  | 63% | O=C(NCc1ccnc(-c2cnco2)c1)N[C@@H]1C[C@H]1C1CCCCC1 (racemic) [Example 23, 1-[[2-(1,3-oxazol-5-yl)pyridin-4-yl]methyl]-3-[rac-(1R,2S)-2-cyclohexylcyclopropyl]urea] |
| 900 nM |  | 51% | C[C@@H]1C[C@H]1NC(=O)NCc1ccnc(OC(F)F)c1 (racemic) [Example 46, 1-[[2-(difluoromethoxy)pyridin-4-yl]methyl]-3-[rac-(1R,2R)-2-methylcyclopropyl]urea] |
| 780 nM |  | 57% | O=C(NCc1ccnc(-c2cnsc2)c1)N[C@@H]1C[C@H]1C1CCCCC1 (racemic) [Example 40, 1-[rac-(1R,2S)-2-cyclohexylcyclopropyl]-3-[[2-(1,2-thiazol-4-yl)pyridin-4-yl]methyl]urea] |
| 670 nM |  | 69% | O=C(NCc1ccnc(-n2cccn2)c1)N[C@@H]1C[C@H]1c1ccccc1 (racemic) [Example 12, 1-[(2-pyrazol-1-ylpyridin-4-yl)methyl]-3-[rac-(1R,2S)-2-phenylcyclopropyl]urea] |
| 660 nM |  | 64% | CC(C)Oc1cc(CNC(=O)N[C@@H]2C[C@H]2c2ccccc2)ccn1 [Example 6, 1-[(1R,2S)-2-phenylcyclopropyl]-3-[(2-propan-2-yloxypyridin-4-yl)methyl]urea] |
| 620 nM |  | 47% | [2H]C([2H])(NC(=O)N[C@@H]1C[C@H]1C(F)(F)F)c1ccnc(OC(F)F)c1 (racemic) [Example 50, 1-[dideuterio-[2-(difluoromethoxy)pyridin-4-yl]methyl]-3-[rac-(1R,2R)-2-(trifluoromethyl)cyclopropyl]urea] |
| 570 nM |  | 84% | O=C(NCc1ccnc(-n2cccn2)c1)N[C@@H]1C[C@H]1C1CCCCC1 (racemic) [Example 2, 1-[rac-(1R,2S)-2-cyclohexylcyclopropyl]-3-[(2-pyrazol-1-ylpyridin-4-yl)methyl]urea] |
| 360 nM |  | 69% | COC[C@@H](Oc1cc(CNC(=O)N[C@@H]2C[C@H]2C(F)(F)F)ccn1)C(F)(F)F (mixture of isomers) [Example 53, 1-[[2-[(2R)-1,1,1-trifluoro-3-methoxypropan-2-yl]oxypyridin-4-yl]methyl]-3-[rac-(1R,2R)-2-(trifluoromethyl)cyclopropyl]urea] |
| 330 nM |  | 40% | CC(F)(F)[C@@H]1C[C@H]1NC(=O)NCc1ccnc(OC(F)F)c1 (racemic) [Example 44, 1-[[2-(difluoromethoxy)pyridin-4-yl]methyl]-3-[rac-(1R,2R)-2-(1,1-difluoroethyl)cyclopropyl]urea] |
| 280 nM |  | 52% | O=C(NCc1cc(OCC(F)(F)F)ncn1)N[C@@H]1C[C@H]1C(F)(F)F (racemic) [Example 51, 1-[rac-(1R,2R)-2-(trifluoromethyl)cyclopropyl]-3-[[6-(2,2,2-trifluoroethoxy)pyrimidin-4-yl]methyl]urea] |
| 160 nM |  | 45% | O=C(NCc1ccnc(-n2cnc(C(F)(F)F)c2)c1)N[C@@H]1C[C@H]1C1CCCCC1 (racemic) [Example 24, 1-[rac-(1R,2S)-2-cyclohexylcyclopropyl]-3-[[2-[4-(trifluoromethyl)imidazol-1-yl]pyridin-4-yl]methyl]urea] |
| 120 nM |  | 69% | C[C@@]1(NC(=O)NCc2ccnc(OC(F)F)c2)C[C@H]1c1ccccc1 (racemic) [Example 36, 1-[[2-(difluoromethoxy)pyridin-4-yl]methyl]-3-[rac-(1R,2S)-1-methyl-2-phenylcyclopropyl]urea] |
| 100 nM |  | 71% | O=C(NCc1ccnc(OC(F)F)c1)N[C@@H]1C[C@H]1c1ccccc1 [Example 7, 1-[[2-(difluoromethoxy)pyridin-4-yl]methyl]-3-[(1R,2S)-2-phenylcyclopropyl]urea] |
| 50 nM |  | 77% | C[C@]1(C(F)(F)F)C[C@@H]1NC(=O)NCc1ccnc(OC(F)F)c1 (racemic) [Example 47, 1-[[2-(difluoromethoxy)pyridin-4-yl]methyl]-3-[rac-(1R,2R)-2-methyl-2-(trifluoromethyl)cyclopropyl]urea] |
